Consider 19 molecules from patent US8143293B2, “Kinase inhibitors useful for the treatment of myleoprolific diseases and other proliferative diseases” (Deciphera Pharmaceuticals, LLC, priority 2007, dated 2012).

The term IC50 denotes the concentration that gives 50% inhibition.

Some results are limits rather than exact numbers.

Experiment [1] deals with T1, C-Met kinase (SEQ ID NO:10) (Homo sapiens, UniProt P08581).
T1 construct: 956-1390, from Invitrogen, catalogue #PV3143; His6 (N-terminal leader MSYYHHHHHH... with TEV and thrombin sites) (N); purchased Invitrogen PV3143
Nature of the experiment: C-Met kinase (SEQ ID NO:10) assay, pyruvate kinase/lactate dehydrogenase coupled. The note with it: 0.5 h preincubation, ATP 100 μM; read-out: Biochemical IC50, c-Met Enzyme Assay. The protocol:
C-Met Kinase (SEQ ID NO:10) Assay
Activity of C-Met kinase (SEQ ID NO:10) was determined by following the production of ADP from the kinase reaction through coupling with the pyruvate kinase/lactate dehydrogenase system (e.g., Schindler, et al. Science (2000) 289, 1938-1942). In this assay, the oxidation of NADH (thus the decrease at A340 nm) was continuously monitored spectrophometrically. The reaction mixture (100 μl) contained C-Met (c-Met residues; 956-1390, from Invitrogen, catalogue #PV3143, […]), polyE4Y (1 mg/ml), MgCl2 (10 mM), pyruvate kinase (4 units), lactate dehydrogenase (0.7 units), phosphoenol pyruvate (1 mM), and NADH (0.28 mM) in 90 mM Tris buffer containing 0.25 mM DTT, 0.2% octyl-glucoside and 1% DMSO, pH 7.5. Test compounds were incubated with C-Met (SEQ ID NO:10) and other reaction reagents at 22° C. for 0.5 h before ATP (100 μM) was added to start the reaction. The absorption at 340 nm was monitored continuously for 2 hours at 30° C. on Polarstar Optima plate reader (BMG). The reaction rate was calculated using the 1.0 to 2.0 h time frame. Percent inhibition was obtained by comparison of reaction rate with that of a control (i.e. with no test compound). IC50 values were calculated from a series of percent inhibition values determined at a range of inhibitor concentrations using software routines as implemented in the GraphPad Prism software package.

Experiment [2] addresses T2, BaF3 cells transfected with T315I p210 BCR-Abl (Homo sapiens, UniProt P00519, T315I, cells depend on it).
T2 construct: fused on or other part: P11274 (Breakpoint cluster region protein)
The experiment can be described thus: Ba/F3 p210 T315I whole cell proliferation assay. It is filed as cell-based. The note with it: 72 hours, Cell Titer Blue; read-out: Whole Cell Antiproliferation IC50, Ba/F3 p210 T315I whole cell proliferation assay.

In experiment [3] the target is T3, BaF3 cells transfected with wild type p210 BCR-Abl (Homo sapiens, UniProt P00519).
T3 construct: fused on or other part: P11274 (Breakpoint cluster region protein)
The experiment can be described thus: Ba/F3 p210 whole cell proliferation assay. It is filed as cell-based. As to conditions: 72 hours, Cell Titer Blue; read-out: Whole Cell Antiproliferation IC50, Ba/F3 p210 whole cell proliferation assay. For orientation: Alamar Blue is a resazurin reagent that responds to reducing activity.

T1 sequence (P08581 with tags, fused parts or gaps): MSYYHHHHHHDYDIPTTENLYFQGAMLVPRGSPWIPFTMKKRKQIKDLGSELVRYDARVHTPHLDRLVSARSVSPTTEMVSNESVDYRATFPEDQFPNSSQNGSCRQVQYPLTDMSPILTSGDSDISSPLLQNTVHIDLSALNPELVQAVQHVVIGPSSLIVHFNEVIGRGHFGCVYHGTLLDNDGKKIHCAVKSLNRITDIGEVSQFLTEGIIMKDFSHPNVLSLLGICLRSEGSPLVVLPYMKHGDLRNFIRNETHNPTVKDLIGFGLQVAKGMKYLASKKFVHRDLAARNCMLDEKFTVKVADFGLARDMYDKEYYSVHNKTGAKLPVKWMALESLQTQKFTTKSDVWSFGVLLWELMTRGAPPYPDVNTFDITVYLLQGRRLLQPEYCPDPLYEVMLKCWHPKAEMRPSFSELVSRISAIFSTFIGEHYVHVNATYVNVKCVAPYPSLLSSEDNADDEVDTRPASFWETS

`Cn1cc(-c2cc(Oc3ccc(NC(=O)Nc4nnc(C(C)(C)C)s4)c(F)c3)ccn2)cn1` [Example 11, 1-(5-tert-butyl-1,3,4-thiadiazol-2-yl)-3-(2-fluoro-4-(2-(1-methyl-1H-pyrazol-4-yl)pyridin-4-yloxy)phenyl)urea]: in experiment [1], the IC50 was < 10000 nM. Further, the GI50 in experiment [2] and in experiment [3] was < 100 nM throughout.
In the case of `Cn1cc(-c2cc(Oc3ccc(NC(=O)Nc4cc(C(F)(F)F)c[nH]c4=O)c(F)c3)ccn2)cn1` [Example 27, 1-(2-fluoro-4-(2-(1-methyl-1H-pyrazol-4-yl)pyridin-4-yloxy)phenyl)-3-(2-oxo-5-(trifluoromethyl)-1,2-dihydropyridin-3-yl)urea], the half-inhibitory concentration (IC50) in experiment [1] was < 1000 nM. In addition, the GI50 in experiment [2] and in experiment [3] was < 100 nM each time.
Turning to `Cn1cc(-c2cc(Oc3ccc(NC(=O)Nc4cnn(C(C)(C)C)c4)c(F)c3)ccn2)cn1` [Example 5, 1-(1-t-butyl-1H-pyrazol-4-yl)-3-(2-fluoro-4-(2-(1-methyl-1H-pyrazol-4-yl)pyridin-4-yloxy)phenyl)urea], in experiment [1], the IC50 was < 10000 nM. Also, the GI50 in experiment [2] and in experiment [3] was < 100 nM each time.
In the case of `Cc1oc(C(C)(C)C)cc1NC(=O)Nc1ccc(Oc2ccnc(-c3cnn(C)c3)c2)cc1F` [Example 28, 1-(5-tert-butyl-2-methylfuran-3-yl)-3-(2-fluoro-4-(2-(1-methyl-1H-pyrazol-4-yl)pyridin-4-yloxy)phenyl)urea], in experiment [1], the IC50 was < 10000 nM. Besides, the figures for the GI50 in experiment [2] and in experiment [3] were < 1000 nM and < 100 nM, respectively.
For `Cn1cc(-c2cc(Oc3ccc(NC(=O)Nc4cc(C(F)(F)F)cnc4-c4cnn(C)c4)c(F)c3)ccn2)cn1` [Example 42, 1-(2-fluoro-4-(2-(1-methyl-1H-pyrazol-4-yl)pyridin-4-yloxy)phenyl)-3-(2-(1-methyl-1H-pyrazol-4-yl)-5-(trifluoromethyl)pyridin-3-yl)urea], in that order: < 1000 nM, < 100 nM and < 100 nM.
In the same order, the values of `Cn1cc(-c2cc(Oc3ccc(NC(=O)Nc4cc(C(C)(C)C)no4)c(F)c3F)ccn2)cn1` [Example 25, 1-(3-tert-butylisoxazol-5-yl)-3-(2,3-difluoro-4-(2-(1-methyl-1H-pyrazol-4-yl)pyridin-4-yloxy)phenyl)urea] are < 100 nM, < 100 nM and < 100 nM.
In the same order, the values of `Cn1cc(-c2cc(Oc3ccc(NC(=O)Nc4cccc(C(F)(F)F)c4)c(F)c3)ccn2)cn1` [Example 3, 1-(2-fluoro-4-(2-(1-methyl-1H-pyrazol-4-yl)pyridin-4-yloxy)phenyl)-3-(3-(trifluoromethyl)phenyl)urea] are < 1000 nM, < 100 nM and < 100 nM.
As to `Cn1cc(-c2cc(Oc3ccc(NC(=O)Nc4cnn(C5CCCC5)c4)c(F)c3)ccn2)cn1` [Example 15, 1-(1-cyclopentyl-1H-pyrazol-4-yl)-3-(2-fluoro-4-(2-(1-methyl-1H-pyrazol-4-yl)pyridin-4-yloxy)phenyl)urea], the IC50 in experiment [1] is < 10000 nM. For the same molecule, the GI50 in experiment [2] and in experiment [3] was < 100 nM in each case.
Regarding `Cn1cc(-c2cc(Oc3ccc(NC(=O)Nc4cnc(C(C)(C)C)nc4N4CCOCC4)c(F)c3)ccn2)cn1` [Example 41, 1-(2-tert-butyl-4-morpholinopyrimidin-5-yl)-3-(2-fluoro-4-(2-(1-methyl-1H-pyrazol-4-yl)pyridin-4-yloxy)phenyl)urea], the half-maximal inhibitory concentration (IC50) in experiment [1] is < 100000 nM. The GI50 in experiment [2] and in experiment [3] was < 1000 nM throughout.
As to `Cn1cc(-c2cc(Oc3ccc(NC(=O)Nc4cnn(C(C)(C)C)c4C(F)(F)F)c(F)c3)ccn2)cn1` [Example 9, 1-(1-tert-butyl-5-(trifluoromethyl)-1H-pyrazol-4-yl)-3-(2-fluoro-4-(2-(1-methyl-1H-pyrazol-4-yl)pyridin-4-yloxy)phenyl)urea], in experiment [1], the IC50 was < 10000 nM. Besides, the values for the GI50 in experiment [2] and in experiment [3] were < 1000 nM and < 100 nM, respectively.
In the same order, the values of “1-(2-fluoro-4-(2-(1-methyl-1H-pyrazol-4-yl)pyridin-4-yloxy)phenyl)-3-(3-(1-methylcyclopentyl)isoxazol-5-yl)urea [Example 14]” are < 1000 nM, < 100 nM and < 100 nM.
As to `Cn1cc(-c2cc(Oc3ccc(NC(=O)Nc4cc(C(C)(C)C)nn4C)c(F)c3)ccn2)cn1` [Example 2, 1-(3-t-butyl-1-methyl-1H-pyrazol-5-yl)-3-(2-fluoro-4-(2-(1-methyl-1H-pyrazol-4-yl)pyridin-4-yloxy)phenyl)urea], the concentration for half-maximal inhibition (IC50) in experiment [1] is < 1000 nM. The GI50 in experiment [2] and in experiment [3] was < 100 nM in each case.
Turning to `Cn1cc(-c2cc(Oc3ccc(NC(=O)Nc4cnn(C(C)(C)C)c4)c(F)c3F)ccn2)cn1` [Example 8, 1-(1-tert-butyl-1H-pyrazol-4-yl)-3-(2,3-difluoro-4-(2-(1-methyl-1H-pyrazol-4-yl)pyridin-4-yloxy)phenyl)urea], in experiment [1], the IC50 is < 1000 nM. Besides, the GI50 in experiment [2] and in experiment [3] was < 100 nM throughout.
Turning to `Cn1cc(-c2cc(Oc3ccc(NC(=O)Nc4cncc(C(F)(F)F)c4)c(F)c3)ccn2)cn1` [Example 21, 1-(2-fluoro-4-(2-(1-methyl-1H-pyrazol-4-yl)pyridin-4-yloxy)phenyl)-3-(5-(trifluoromethyl)pyridin-3-yl)urea], in experiment [1], the IC50 was < 1000 nM. In addition, the GI50 in experiment [2] and in experiment [3] was < 100 nM in each case.
For the molecule `Cc1c(NC(=O)Nc2ccc(Oc3ccnc(-c4cnn(C)c4)c3)cc2F)cnn1C(C)(C)C` [Example 10, 1-(1-tert-butyl-5-methyl-1H-pyrazol-4-yl)-3-(2-fluoro-4-(2-(1-methyl-1H-pyrazol-4-yl)pyridin-4-yloxy)phenyl)urea], the IC50 in experiment [1] is < 10000 nM. Further, the GI50 is < 1000 nM in experiment [2] and < 100 nM in experiment [3].
In the same order, the values of `Cn1cc(-c2cc(Oc3ccc(NC(=O)Nc4cncc(C(F)(F)F)c4)cc3)ccn2)cn1` [Example 6, 1-(4-(2-(1-methyl-1H-pyrazol-4-yl)pyridin-4-yloxy)phenyl)-3-(5-(trifluoromethyl)pyridin-3-yl)urea] are < 10000 nM, < 100 nM and < 100 nM.
In the same order, the values of `Cn1cc(-c2cc(Oc3ccc(NC(=O)Nc4cc(C(C)(C)C)no4)c(F)c3)ccn2)cn1` [Example 1, 1-(3-t-butylisoxazol-5-yl)-3-(2-fluoro-4-(2-(1-methyl-1H-pyrazol-4-yl)pyridin-4-yloxy)phenyl)urea] are < 1000 nM, < 100 nM and < 100 nM.
For `CC(C)c1cncc(NC(=O)Nc2ccc(Oc3ccnc(-c4cnn(C)c4)c3)cc2F)c1` [Example 22, 1-(2-fluoro-4-(2-(1-methyl-1H-pyrazol-4-yl)pyridin-4-yloxy)phenyl)-3-(5-isopropylpyridin-3-yl)urea], in that order: < 1000 nM, < 100 nM and < 100 nM.
For `CN(C)CCn1nc(C(C)(C)C)cc1NC(=O)Nc1ccc(Oc2ccnc(-c3cnn(C)c3)c2)cc1F` [Example 12, 1-(3-tert-butyl-1-(2-(dimethylamino)ethyl)-11H-pyrazol-5-yl)-3-(2-fluoro-4-(2-(1-methyl-1H-pyrazol-4-yl)pyridin-4-yloxy)phenyl)urea], the IC50 in experiment [1] was < 10000 nM. For the same molecule, the GI50 in experiment [2] and in experiment [3] was < 100 nM each time.
